Reference: patent publication US8829014B2, “Thiazole and thiophene analogues, and their use in treating autoimmune diseases and cancers” (Board of Supervisors of Louisiana State University and …, priority 2006, dated 2014)
Like-named read-outs stand apart in the source and are kept apart here.

Columns and labels:
carageenan-induced edema = experiment: Carrageenan-induced rat paw edema test (anti-inflammatory activity); type: in vivo, Sprague-Dawley rats; conditions: carrageenan-induced rat paw edema, defined in Example 397; for inhibition in vivo at 50 mg/kg: po, 3 h, read-out: % Protection
How it was run: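 Sprague-Dawley rats (male and female, 150-250 g), fasted 18 h, given compound orally at 50 mg/kg in 0.1% sodium CMC (alternatively i.v., s.c. or i.p.). 1% carrageenan injected sub-plantar in right hind paw 1 h later. Paw displacement read again 3 h later; % protection = [(Control−Test)/Control]×100 versus saline control.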

NF-κB = NF-κB inhibitor screen: basal NF-κB-dependent luciferase expression in HEK/NF-κB cell line; type: cell-based; conditions: for inhibition at 1 µM: read-out: NFkB inhibition @ 1 uM; for inhibition of basal NF-κB-dependent luciferase expression: 3.3 μM (FIG. 12)
From the text: Development of NF-κB and AP-1 Screens: Two HEK293 cell lines were purchased from Panomics. One cell line was stably transfected with a plasmid in which luciferase expression is regulated by six copies of the NF-κB transcriptional element (5′-[…]-3′); and the other cell line was stably transfected with a plasmid in which luciferase expression is regulated by three copies of the AP-1 transcriptional element (TGACTAA). To test the biological activity of the promoters, the HEK/NF-κB cell line was stimulated with TNF-α (20 ng/ml) for 24 hours, and the HEK/AP-1 cell line was stimulated with PMA (10 ng/ml) for 24 hours. […] In addition, a pyrimidine carboxyimide that had previously been shown (ref. 58) to be an inhibitor of transcription mediated by NF-κB and AP-1 reduced luciferase activity by approximately 40% in each of the NF-κB and AP-1 cell lines.
The above two assays analyzed the effects of the compounds on post-transcriptional gene regulation, which is known to play a key role in cancer and inflammation. By contrast, the NF-κB assay and the following assay (AP-1) test whether the compounds act at the transcriptional level. Thirty-nine representative compounds were screened in an HEK/NF-κB cell line. HEK cells were stably transfected with a plasmid expressing luciferase under the control of the NF-κB promoter. These transfected cells were plated on a 96-well plate. As above, initial screening was carried out at 1.0 μM by adding compound in DMSO (0.3%) twenty-four hours after plating. Each compound was added to each of triplicate wells. DMSO (0.3%) was added to one set of wells as a control. Luciferase activity was determined using Promega's Brite-Glo kit, and the mean for each sample was normalized to that for DMSO.
The fourteen representative compounds identified in the eIF4E screen as interesting (Numbered 2, 3, 4, 6, 8, 11, 15, 20, 21, 24, 25, 32, 33, and 35) were then tested for luciferase activity in a six-point dose response (10 nM, 33 nM, 100 nM, 330 nM, 1000 nM, and 3300 nM). Screening was carried out as described above by monitoring the effects of the compounds on basal NF-κB-dependent luciferase expression. Each dose was used out in triplicate, and repeated between two and four times. Results were normalized by the average expression level at the lowest concentration level, as described above.

AP-1 = AP-1 inhibitor screen: basal AP-1-dependent luciferase expression in HEK/AP-1 cell line; type: cell-based; conditions: 1 uM, determined as described in Example 398; for inhibition at 1 µM: AP1
From the text: Development of NF-κB and AP-1 Screens: Two HEK293 cell lines were purchased from Panomics. One cell line was stably transfected with a plasmid in which luciferase expression is regulated by six copies of the NF-κB transcriptional element (5′-[…]-3′); and the other cell line was stably transfected with a plasmid in which luciferase expression is regulated by three copies of the AP-1 transcriptional element (TGACTAA). To test the biological activity of the promoters, the HEK/NF-κB cell line was stimulated with TNF-α (20 ng/ml) for 24 hours, and the HEK/AP-1 cell line was stimulated with PMA (10 ng/ml) for 24 hours.
HEK cells were stably transfected with a plasmid expressing luciferase under the control of the AP-1 promoter. The transfected cells were plated on a 96-well plate for 24 hr. Then 1.0 μM of each compound in DMSO (0.3%) was added to triplicate wells and incubated for 48 hr. DMSO (0.3%) was added to one set of triplicate wells as a control. Luciferase activity was determined using Promega's Brite-Glo kit, and the mean for each sample was normalized to that for DMSO.
Screening was carried out as described above, monitoring the compounds' effects on basal AP-1-dependent luciferase expression. Each dose-response experiment was carried out in triplicate and repeated between two and four times.

[1] = 1 uM, determined as described in Example 398

melting point | Compound | inhibition in vivo at 50 mg/kg (carageenan-induced edema; Rattus norvegicus) | inhibition at 1 µM (NF-κB; [1]) | inhibition at 1 µM (AP-1) | further results
210 to 211 °C | CCOC(=O)Nc1nc(C)c(-c2nc3ccccc3c(=O)n2-c2cccc(C)c2)s1 | – | – | – | –
232 to 233 °C | COC(=O)Nc1nc(C)c(-c2nc3ccccc3c(=O)n2-c2cccc(C)c2)s1 | – | – | – | –
145 to 147 °C | Cc1cnc(-c2cc(-c3ccccc3)c(N3CCOCC3)s2)cc1OCC(F)(F)F [Example 41, 4-{5-[5-Methyl-4-(2,2,2-trifluoro-ethoxy)-pyridine-2-yl]-3-phenyl-thiophene-2-yl}-morpholine] | – | – | – | –
198 to 199 °C | Cc1nc(NC(=O)c2ccco2)sc1C(=O)c1sc(NC(=O)c2ccco2)nc1C [Example 122, Bis-[2-(2-Furoyl-amino)-4-methyl-thiazole-5-yl]-methanone] | – | – | – | –
220 to 225 °C | CNc1nc(-c2ccccc2)c(-c2nc3ccccc3c(=O)n2-c2ccccc2C)s1 [Example 173, 2-(2-methylamino-4-phenyl-thiazol-5-yl)-3-o-tolyl-3H-quinazolin-4-one] | – | – | – | –
141 to 143 °C | Cc1ccccc1-n1c(-c2sc(Nc3ccccc3)nc2-c2ccccc2)nc2ccccc2c1=O [Example 174, 3-o-Tolyl-2-(4-phenyl-2-phenylamino-thiazol-5-yl)-3H-quinazolin-4-one] | – | – | – | –
> 275 °C | Cc1ccccc1-n1c(-c2sc(NC(=O)c3ccccc3)nc2-c2ccccc2)nc2ccccc2c1=O [Example 175, N-[5-(4-Oxo-3-o-tolyl-3,4-dihydro-quinazolin-2-yl)-4-phenyl-thiazole-2-yl]benzamide] | – | – | – | –
261 to 263 °C | CCOC(=O)Nc1nc(-c2ccccc2)c(-c2nc3ccccc3c(=O)n2-c2cccc(C)c2)s1 [Example 184, [5-(4-Oxo-3-m-tolyl-3,4-dihydro-quinazolin-2-yl)-4-phenyl-thiazol-2-yl]-carbamic acid ethyl ester] | – | – | – | –
– | Cc1nc(Nc2ccc(Cl)cc2)sc1-c1nc2ccccc2c(=O)n1-c1ccccc1Cl [Example 230, 2-[2-(4-Chlorophenylamino)-4-methyl-thiazol-5-yl]-3-(2-chloro-phenyl)-3H-quinazolin-4-one] | 58% | 60% | 21% | –
– | CCOC(=O)Nc1nc(C)c(-c2nc3ccccc3c(=O)n2-c2ccc(Cl)cc2)s1 [Example 242, (4-Methyl-5-(4-oxo-3-(4-chloro-phenyl)-3,4-dihydro-quinazolin-2-yl)-thiazol-2-yl)-carbamic acid ethyl ester] | 65% | 53% | 12% | inhibition of basal NF-κB-dependent luciferase expression (NF-κB): about 50%
– | Cc1nc(Nc2ccccc2)sc1-c1nc2ccccc2c(=O)n1-c1ccc(Cl)cc1 [Example 245, 2-(4-Methyl-2-phenylamino-thiazol-5-yl)-3-(4-chloro-phenyl)-3H-quinazolin-4-one] | 72% | 79% | 82% | –
– | Cc1nc(Nc2ccc(Cl)cc2)sc1-c1nc2ccccc2c(=O)n1-c1ccc(Cl)cc1 [Example 246, 2-[2-(4-Chlorophenylamino)-4-methyl-thiazol-5-yl]-3-(4-chloro-phenyl)-3H-quinazolin-4-one] | – | 96% | 74% | inhibition in vivo at 50 mg/kg (carageenan-induced edema): 38%; inhibition of basal NF-κB-dependent luciferase expression (NF-κB): about 50%
– | CCOC(=O)Nc1nc(-c2ccccc2)c(-c2nc3ccccc3c(=O)n2-c2ccc(Cl)cc2)s1 [Example 249, [5-(4-Oxo-3-(4-Chloro-phenyl)-3,4-dihydro-quinazolin-2-yl)-4-phenyl-thiazol-2-yl]-carbamic acid ethyl ester] | 81% | 16% | 0% | –
– | COC(=O)Nc1nc(-c2ccccc2)c(-c2nc3ccccc3c(=O)n2-c2ccc(Cl)cc2)s1 [Example 250, [5-(4-Oxo-3-(4-Chloro-phenyl)-3,4-dihydro-quinazolin-2-yl)-4-phenyl-thiazol-2-yl]-carbamic acid methyl ester] | 83% | 17% | 5% | –
– | CNc1nc(-c2ccccc2)c(-c2nc3ccccc3c(=O)n2-c2ccc(Cl)cc2)s1 [Example 251, 2-(2-Methylamino-4-phenyl-thiazol-5-yl)-3-(4-Chloro-phenyl)-3H-quinazolin-4-one] | – | 85% | 69% | inhibition in vivo at 50 mg/kg (carageenan-induced edema): 92%
– | O=c1c2ccccc2nc(-c2sc(Nc3ccccc3)nc2-c2ccccc2)n1-c1ccc(Cl)cc1 [Example 252, 3-(4-Chloro-phenyl)-2-(4-phenyl-2-phenylamino-thiazol-5-yl)-3H-quinazolin-4-one] | 81% | 80% | 21% | –
– | O=C(Nc1nc(-c2ccccc2)c(-c2nc3ccccc3c(=O)n2-c2ccc(Cl)cc2)s1)c1ccccc1 [Example 253, N-[5-(4-Oxo-3-(4-Chloro-phenyl)-3,4-dihydro-quinazolin-2-yl)-4-phenyl-thiazole-2-yl]benzamide] | 83% | 87% | 28% | –
– | O=c1c2ccccc2nc(-c2sc(Nc3ccc(Cl)cc3)nc2-c2ccccc2)n1-c1ccc(Cl)cc1 [Example 256, 2-[2-(4-Chloro-phenylamino)-4-phenyl-thiazol-5-yl]-3-(4-Chloro-phenyl)-3H-quinazolin-4-one] | 84% | 99% | 61% | –
– | CNc1nc(C)c(-c2nc3ccccc3c(=O)n2-c2ccc(C(C)=O)cc2)s1 [Example 261, 2-(4-Methyl-2-methylamino-thiazol-5-yl)-3-(4-acetyl-phenyl)-3H-quinazolin-4-one] | 42% | 71% | -33% | –
– | CC(=O)c1ccc(-n2c(-c3sc(Nc4ccc(Cl)cc4)nc3C)nc3ccccc3c2=O)cc1 [Example 263, 2-[2-(4-Chlorophenylamino)-4-methyl-thiazol-5-yl]-3-(4-acetyl-phenyl)-3H-quinazolin-4-one] | 13% | 0% | 2% | –
– | CCOC(=O)Nc1nc(-c2ccccc2)c(-c2nc3ccccc3c(=O)n2-c2ccc(C(C)=O)cc2)s1 [Example 264, [5-(4-Oxo-3-(4-acetyl-phenyl)-3,4-dihydro-quinazolin-2-yl)-4-phenyl-thiazol-2-yl]-carbamic acid ethyl ester] | 40% | 25% | 25% | –
– | CC(=O)c1ccc(-n2c(-c3sc(Nc4ccc(Cl)cc4)nc3-c3ccccc3)nc3ccccc3c2=O)cc1 [Example 271, 2-[2-(4-Chlorophenylamino)-4-phenyl-thiazol-5-yl]-3-(4-acetyl-phenyl)-3H-quinazolin-4-one] | 23% | -12% | 31% | –
– | {5-[3-(4-Methoxy-phenyl)-4-oxo-3,4-dihydro-quinazolin-yl]-thiazol-2-yl}-carbamic acid ethyl ester [Example 215] | – | – | – | % Protection (carageenan-induced edema): 25%; NFkB inhibition @ 1 uM (NF-κB; [1]): 34; AP-1 inhibition @ 1 uM (AP-1): −6
